Reference: US20090023780A1 (priority 2000, published 2009)

System: Sprague-Dawley rats
Test: Phase 1: specific effects of gacyclidine on the nociceptive threshold in rats (modified Randall-Selitto test)
Assay type: in vivo, rat
Conditions: for analgesic effect per se: 0.1 mg/kg
Procedure: All the experiments are carried out on Sprague-Dawley rats weighing 350-400 g; each experimental phase is carried out according to a similar plan: each experimental phase is carried out on 6 groups of 12 rats including one group of control animals. The test adopted to measure the nociceptive threshold is the Randall-Selitto Test modified according to Kayser et al. (1990) (Kayser V., Basbaum A. I. and Guilbaud G.,
Deafferentation in the rat increase mechanical nociceptive threshold in the innervated limbs; Brain research ([…]), 508, 329-332), using a mechanical stimulus of increasing intensity (expressed in grams), the retained evoked response being the cry of the animal.
The general plan for an experimental phase is as follows: • arrival and housing of the animals: 4 days; • preparation of the animals allowing them to become familiar with the investigator and the experimental conditions and measurements in order to avoid any possibility of measurement bias being induced by stress: 14 days; • preparation and insertion of the catheters: 9 days; • post-operative rest (with antibiotic treatment) and determination of the stability of the experimental measurements (basic nociceptive threshold): 4 days; • testing of response to the different active ingredients: 9 days.
The 3 doses of gacyclidine retained: 0.1, 0.3 and 1 mg/kg, are injected by venous route using the catheter introduced into a jugular vein.
All the results are analyzed according to an ANOVA test.
Phase 1: study of the specific effects of gacyclidine on the nociceptive threshold in rats.
3 series of experiments each including 2 groups of animals of 12 rats are set up. • 1st series of experiments: • 1st group: the animals receive an injection of physiological saline solution. • 2nd group: the animals receive a dose of 0.1 mg/kg of gacyclidine.
2nd series of experiments: • 1st group: the animals receive an injection of physiological saline solution. • 2nd group: the animals receive a dose of 0.3 mg/kg of gacyclidine.
3rd series of experiments: • 1st group: the animals receive an injection of physiological saline solution. • 2nd group: the animals receive a dose of 1 mg/kg of gacyclidine.
All the animals in the 3 series of experiments are prepared during the same phase. The day of administration of the gacyclidine (or of the physiological saline solution) for each series is deferred by only 3 days in order to follow the evolution of the nociceptive threshold for several days following the administration of the pharmaceutical substances. The measurement of the nociceptive threshold is carried out over at least 4 hours after the injection of gacyclidine, at the rate of one measurement every 30 minutes then daily for at least one week.

[1] = gacyclidine alone, 0.1 mg/kg i.v.

With “1-[cis-2-methyl-1-(2-thienyl)cyclohexyl]piperidine [gacyclidine]” the psychomotor effect (doses of 0.1 and 0.3 mg/kg) was “does not have any psychomotor effect”, the “motor effect per se” value [1] was “neither analgesic effect nor motor effect” and the “analgesic effect per se” value [1] was “neither analgesic effect nor motor effect”. The “analgesic effect per se” value (gacyclidine alone, 0.1 mg/kg i.v., listed as thienylcyclohexylamine) was “does not per se cause any analgesic effect”, the “duration of analgesic effect (nociceptive threshold)” value (gacyclidine alone, 0.3 mg/kg i.v.) was 30 min and the “duration of analgesic effect (nociceptive threshold)” value (gacyclidine alone, 1 mg/kg i.v.) was “first hour”. The motor effects (gacyclidine alone, 1 mg/kg i.v. (strongest dose used)) was “induces motor effects”.
